{
  "source": "the supplement of paper PMC10307832",
  "experiment_in_all_cases": "relative viability (nuclei count vs DMSO), 5 days (fraction); higher = more cells survive",
  "key": {"[1]": {"compound": "CCC1=CN=CN=C1N2CCN(CC2)CC3=NC4=C(N3)C=C(C=C4)C(F)(F)F + CC(C)C[C@H](NC(=O)[C@H](Cc1ccccc1)NC(=O)c1cnccn1)B(O)O [Bortezomib] (partner 0.002 µM)", "outline": "(§1)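 Lung cancer cell lines, seeded in 1536-well plates, were treated the following day by pin tool with a single drug or with five library-drug doses (not always all listed) in √10 steps on top of a fixed anchor-drug dose. Cells were fixed and nuclei stained in one step after 5 days, and nuclei were counted. Relative viability is the nuclei count for treated wells divided by that for vehicle wells, reported as medians of duplicate plates.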"}, "[2]": {"compound": "CCn1c(-c2nonc2N)nc2cnc(Oc3cccc(NC(=O)c4ccc(OCCN5CCOCC5)cc4)c3)cc21 + COc1cc2c(Oc3ccc(NC(=O)C4(C(=O)Nc5ccc(F)cc5)CC4)cc3F)ccnc2cc1OCCCN1CCOCC1 [Foretinib] (partner 0.25 µM)", "outline": "as §1"}, "[3]": {"compound": "CCn1c(-c2nonc2N)nc2cnc(Oc3cccc(NC(=O)c4ccc(OCCN5CCOCC5)cc4)c3)cc21 + C[C@@H](Oc1cc(-c2cnn(C3CCNCC3)c2)cnc1N)c1c(Cl)ccc(F)c1Cl [Crizotinib] (partner 1 µM)", "outline": "as §1"}, "[4]": {"compound": "CCn1c(-c2nonc2N)nc2cnc(Oc3cccc(NC(=O)c4ccc(OCCN5CCOCC5)cc4)c3)cc21 + O=C(c1cc(Cc2n[nH]c(=O)c3ccccc23)ccc1F)N1CCN(C(=O)C2CC2)CC1 [Olaparib] (partner 8 µM)", "outline": "as §1"}},
  "data": [
    {"cell line": "UMC-11", "values": [
      {"measurement": "relative viability", "setting": "[1]; first compound 0.04 µM", "result": 0.703},
      {"measurement": "relative viability", "setting": "[1]; first compound 0.1265 µM", "result": 0.672},
      {"measurement": "relative viability", "setting": "[1]; first compound 0.4 µM", "result": 0.554},
      {"measurement": "relative viability", "setting": "[1]; first compound 1.265 µM", "result": 0.701},
      {"measurement": "relative viability", "setting": "[1]; first compound 4 µM", "result": 0.707},
      {"measurement": "relative viability", "setting": "[2]; first compound 0.04 µM", "result": 1.04},
      {"measurement": "relative viability", "setting": "[2]; first compound 0.1265 µM", "result": 0.903},
      {"measurement": "relative viability", "setting": "[2]; first compound 0.4 µM", "result": 0.68},
      {"measurement": "relative viability", "setting": "[2]; first compound 1.265 µM", "result": 0.245},
      {"measurement": "relative viability", "setting": "[2]; first compound 4 µM", "result": 0.186},
      {"measurement": "relative viability", "setting": "[3]; first compound 0.04 µM", "result": 0.924},
      {"measurement": "relative viability", "setting": "[3]; first compound 0.1265 µM", "result": 0.743},
      {"measurement": "relative viability", "setting": "[3]; first compound 0.4 µM", "result": 0.577},
      {"measurement": "relative viability", "setting": "[3]; first compound 1.265 µM", "result": 0.135},
      {"measurement": "relative viability", "setting": "[3]; first compound 4 µM", "result": 0.121},
      {"measurement": "relative viability", "setting": "[4]; first compound 0.04 µM", "result": 0.38},
      {"measurement": "relative viability", "setting": "[4]; first compound 0.1265 µM", "result": 0.303},
      {"measurement": "relative viability", "setting": "[4]; first compound 0.4 µM", "result": 0.32},
      {"measurement": "relative viability", "setting": "[4]; first compound 1.265 µM", "result": 0.088},
      {"measurement": "relative viability", "setting": "[4]; first compound 4 µM", "result": 0.185}
    ]}
  ]
}
